These results are taken from patent US20110262508A1, “ANTIMICROBIAL COMPOSITIONS, FORMULATIONS AND USES THEREOF” (priority 2007, published 2011).

Each structure is given as a SMILES string. Values after ≈ are worked out from the molar mass of the structure shown. Peptide text beside a SMILES is read from it.

The test system of assay [1] is A. baumannii ATCC 19606, Acinetobacter spp. ATCC 17903, Acinetobacter spp. ATCC 19004, E. coli BL21, S. aureus, S. typhimurium AroA, P. aeruginosa, P. …. Put plainly: Antibacterial spectrum over the serial dilution panel (Table 6). It is filed as cell-based. The note with it: summary of Table 6. On the procedure: Synthetic peptides were tested for their ability to inhibit bacterial growth in liquid culture. The peptides were added at a concentration of between about 5 μM and about 10 μM to individual wells of 96-deep-well dishes that contained liquid growth media freshly inoculated with one of the following bacteria: A. baumannii ATCC Accession No. 19606, Acinetobacter spp. ATCC 17903, Acinetobacter spp. ATCC 19004, Escherichia coli strain BL21, S. aureus, S. typhimurium strain AroA, P. aeruginosa or P. pneumotropica. After 5-6 hours of shaking at 37° C., growth was measured as absorbance at 595 nm. As a control, cultures were grown in the presence of 0.1% acetonitrile (i.e., the concentration present in 10 μM peptide).

Assay [2] has as its system A. baumannii. It is filed as cell-based. The note with it: for MBC (μM): A. baumannii (Table 8), reduces original inoculum by at least about 99.9%. The source says:
Broth dilution methods are e.g., described by Lorian (2007) In: Antibiotics in Laboratory Medicine, Fifth Edition; and In: Clinical and Laboratory Standards Institute, CLSI (formerly NCCLS), In: Methods for Dilution Antimicrobial Susceptibility Tests for Bacteria that Grow Aerobically—Approved Standard—Seventh Edition, CLSI document M7-A7, Villanova, Pa. (NCCLS; January 2006; Vol. 26 No. 2); and In: Clinical and Laboratory Standards Institute, CLSI (formerly NCCLS), Performance Standards for Antimicrobial Susceptibility Testing, Seventeenth Informational Supplement, M100-S17, Vol 27 No. 1 January 2007, all of which are incorporated herein by reference.
The present inventors used such methods to quantitate activity in vitro of antimicrobial peptides of the invention against bacterial isolates, including laboratory strains and 50 clinical isolates of A. baumannii, and S. aureus ATCC Accession No. 2992. Briefly, small volumes of broth are dispensed in sterile, plastic microtiter trays, and 100 μl of serially-diluted antimicrobial peptide (0.1-64 μg) and 100 μl test organism (approximately 1×10^5 C.F.U.), are added. Following aerobic incubation overnight at 35±2° C. Control samples lacked peptide (Growth control), or lacked peptide and bacteria (Sterility control). The trays were examined visually and the minimal inhibitory concentration (MIC) of peptide required to inhibit bacterial growth were determined. The minimum bactericidal concentration (MBC) was estimated by sub-culturing the wells for which no bacterial growth was visible to the naked eye, to thereby determine a concentration of antimicrobial that reduces the original inoculum by at least about 99.9%.

For the compound `CC[C@H](C)[C@H](NC(=O)[C@H](CCCCN)NC(=O)[C@H](CO)NC(=O)[C@H](CC(C)C)NC(=O)[C@@H](N)CC(C)C)C(=O)N[C@@H](CCCNC(=N)N)C(=O)N[C@@H](C)C(=O)N[C@@H](CC(C)C)C(=O)N[C@@H](CCCNC(=N)N)C(=O)N[C@@H](CCCNC(=N)N)C(=O)N[C@@H](CCCNC(=N)N)C(=O)N[C@@H](CCCNC(=N)N)C(=O)N[C@@H](Cc1ccccc1)C(=O)NCC(=O)N[C@@H](CCC(N)=O)C(=O)N[C@@H](CS)C(=O)N[C@@H](CC(=O)O)C(=O)N[C@@H](CCCCN)C(=O)N[C@@H](CCCNC(=N)N)C(=O)N[C@H](C(=O)N[C@@H](CO)C(=O)N[C@@H](Cc1ccc(O)cc1)C(=O)N[C@@H](CCCCN)C(=O)O)[C@@H](C)CC` [Ac15] (H-LLSKIRALRRRRFGQCDKRISYK-OH; N-terminus and C-terminus assumed), in assay [1], the “selectively inhibited growth of A. baumannii ATCC Accession No. 19606, Acinetobacter spp. ATCC 17903 and Acinetobacter spp. ATCC 19004” value is on record as “selectively inhibited growth”.

Regarding `CC[C@H](C)[C@H](NC(=O)[C@H](CC(C)C)NC(=O)[C@H](CCCNC(=N)N)NC(=O)[C@@H](NC(=O)[C@@H](NC(=O)[C@H](Cc1ccc(O)cc1)NC(=O)[C@H](CCCCN)NC(=O)[C@@H](N)Cc1ccc(O)cc1)[C@@H](C)CC)[C@@H](C)CC)C(=O)N[C@@H](CCC(=O)O)C(=O)N[C@@H](CC(N)=O)C(=O)N[C@@H](Cc1c[nH]c2ccccc12)C(=O)NCC(=O)N[C@@H](CCC(=O)O)C(=O)N[C@@H](CS)C(=O)NCC(=O)N[C@@H](CS)C(=O)N[C@@H](CCCNC(=N)N)C(=O)N[C@@H](Cc1ccc(O)cc1)C(=O)N[C@@H](CS)C(=O)N[C@@H](CCCNC(=N)N)C(=O)N[C@H](C(=O)N[C@H](C(=O)N[C@@H](CCCNC(=N)N)C(=O)O)C(C)C)[C@@H](C)CC` [Ac18] (H-YKYIIRLIENWGECGCRYCRIVR-OH; N-terminus and C-terminus assumed), in assay [1], the “selectively inhibited growth of S. aureus” value is reported as “selectively inhibited growth”.

As for `CC[C@H](C)[C@H](NC(=O)[C@H](CC(C)C)NC(=O)[C@H](CCCNC(=N)N)NC(=O)[C@@H](NC(=O)[C@@H](NC(=O)[C@H](Cc1ccc(O)cc1)NC(=O)[C@H](CCCCN)NC(=O)[C@@H](N)Cc1ccc(O)cc1)[C@@H](C)CC)[C@@H](C)CC)C(=O)N[C@@H](CCC(=O)O)C(=O)N[C@@H](CC(N)=O)C(=O)N[C@@H](Cc1c[nH]c2ccccc12)C(=O)NCC(=O)N[C@@H](CCC(=O)O)C(=O)N[C@@H](CO)C(=O)NCC(=O)N[C@@H](CO)C(=O)N[C@@H](CCCNC(=N)N)C(=O)N[C@@H](Cc1ccc(O)cc1)C(=O)N[C@@H](CO)C(=O)N[C@@H](CCCNC(=N)N)C(=O)N[C@H](C(=O)N[C@H](C(=O)N[C@@H](CCCNC(=N)N)C(=O)O)C(C)C)[C@@H](C)CC` [Ac19] (H-YKYIIRLIENWGESGSRYSRIVR-OH), the “selectively inhibited growth of A. baumannii ATCC Accession No. 19606, Acinetobacter spp. ATCC 17903, Acinetobacter spp. ATCC 19004, and S. aureus” value in assay [1] is on record as “selectively inhibited growth”.

As for `CC[C@H](C)[C@H](NC(=O)[C@H](Cc1c[nH]c2ccccc12)NC(=O)[C@H](CCCNC(=N)N)NC(=O)[C@@H](N)CO)C(=O)N[C@@H](CS)C(=O)N[C@@H](CO)C(=O)N[C@@H](CCSC)C(=O)N[C@@H](C)C(=O)N[C@@H](CCCNC(=N)N)C(=O)N[C@@H](CCCNC(=N)N)C(=O)N[C@@H](CO)C(=O)N[C@@H](CCCNC(=N)N)C(=O)N[C@@H](CCCNC(=N)N)C(=O)N[C@@H](CCCNC(=N)N)C(=O)N[C@@H](CCCNC(=N)N)C(=O)N1CCC[C@H]1C(=O)NCC(=O)N[C@@H](CCCNC(=N)N)C(=O)N[C@@H](CO)C(=O)N[C@H](C(=O)N[C@@H](CCCNC(=N)N)C(=O)N[C@@H](CO)C(=O)N[C@@H](Cc1c[nH]c2ccccc12)C(=O)O)[C@@H](C)O` [Ac390] (H-SRWICSMARRSRRRRPGRSTRSW-OH; N-terminus and C-terminus assumed), in assay [2], the minimal bactericidal concentration (MBC) (usually the smallest concentration meeting the test's criterion for killing) was found to be 40 µM (≈ 116 µg/mL) and the MIC (in general, the least concentration at which growth counts as inhibited) turned out to be 40 µM (≈ 116 µg/mL).

For the compound `CC[C@H](C)[C@H](NC(=O)[C@@H]1CCCN1C(=O)[C@@H](NC(=O)[C@@H](NC(=O)[C@H](C)NC(=O)[C@H](CCCNC(=N)N)NC(=O)[C@H](CC(C)C)NC(=O)[C@@H](NC(=O)[C@H](C)NC(=O)[C@H](CCCNC(=N)N)NC(=O)[C@H](CC(C)C)NC(=O)[C@H](CCSC)NC(=O)[C@H](C)NC(=O)[C@@H](NC(=O)[C@@H]1CCCN1C(=O)[C@H](CC(C)C)NC(=O)[C@@H](N)C(C)C)C(C)C)[C@@H](C)O)[C@@H](C)O)C(C)C)C(=O)N[C@@H](CO)C(=O)N[C@@H](CCCNC(=N)N)C(=O)N[C@@H](CO)C(=O)N[C@@H](CCCNC(=N)N)C(=O)N[C@@H](CC(C)C)C(=O)N[C@@H](CCCNC(=N)N)C(=O)O` [Ac434] (H-VLPVAMLRATLRATVPISRSRLR-OH; N-terminus and C-terminus assumed), in assay [2], the “MBC” value was found to be 40 µM (≈ 103 µg/mL) and the minimal inhibitory concentration (MIC) was 40 µM (≈ 103 µg/mL).

In the case of `CC[C@H](C)[C@H](NC(=O)[C@H](CCC(N)=O)NC(=O)[C@H](CCCNC(=N)N)NC(=O)[C@@H](NC(=O)[C@@H](NC(=O)[C@@H]1CCCN1)C(C)C)C(C)C)C(=O)N[C@@H](CC(C)C)C(=O)N[C@@H](CCCNC(=N)N)C(=O)N[C@@H](CO)C(=O)N[C@@H](CCC(=O)O)C(=O)N[C@@H](Cc1c[nH]c2ccccc12)C(=O)N[C@@H](CCCNC(=N)N)C(=O)N[C@@H](CC(N)=O)C(=O)N[C@@H](Cc1c[nH]c2ccccc12)C(=O)N[C@@H](CCCNC(=N)N)C(=O)N[C@@H](CCCCN)C(=O)N[C@@H](CO)C(=O)N[C@@H](CC(C)C)C(=O)N[C@@H](CCC(=O)O)C(=O)N[C@@H](CCSC)C(=O)N[C@@H](CCCNC(=N)N)C(=O)NCC(=O)N[C@@H](CCCNC(=N)N)C(=O)O` [Ac437] (H-PVVRQILRSEWRNWRKSLEMRGR-OH; N-terminus and C-terminus assumed), in assay [2], the “MIC” value was found to be 40 µM (≈ 118 µg/mL).

For the compound `CC[C@H](C)[C@H](NC(=O)[C@H](CCCNC(=N)N)NC(=O)[C@@H]1CCCN1C(=O)CNC(=O)[C@H](C)NC(=O)[C@H](CCSC)NC(=O)[C@H](CCCNC(=N)N)NC(=O)[C@H](CC(C)C)NC(=O)[C@H](CCCNC(=N)N)NC(=O)[C@H](CS)NC(=O)[C@H](CS)NC(=O)[C@H](C)NC(=O)[C@H](Cc1c[nH]c2ccccc12)NC(=O)CNC(=O)[C@H](CS)NC(=O)CNC(=O)[C@H](C)NC(=O)[C@H](C)NC(=O)[C@@H]1CCCN1C(=O)[C@H](Cc1ccccc1)NC(=O)[C@H](Cc1c[nH]c2ccccc12)NC(=O)CN)C(=O)NCC(=O)O` [Ac451] (H-GWFPAAGCGWACCRLRMAGPRIG-OH; N-terminus and C-terminus assumed), the “MIC” value in assay [2] amounted to 40 µM (≈ 97.5 µg/mL).

As for `CC[C@H](C)[C@H](NC(=O)[C@H](C)NC(=O)[C@H](Cc1c[nH]c2ccccc12)NC(=O)[C@H](CCCNC(=N)N)NC(=O)[C@H](CC(C)C)NC(=O)[C@H](CO)NC(=O)CNC(=O)[C@H](C)NC(=O)[C@H](CCCNC(=N)N)NC(=O)[C@H](Cc1c[nH]cn1)NC(=O)[C@H](CC(=O)O)NC(=O)[C@@H](NC(=O)[C@@H]1CCCN1C(=O)[C@H](CCCNC(=N)N)NC(=O)[C@@H]1CCCN1C(=O)[C@@H](N)CCCNC(=N)N)C(C)C)C(=O)N[C@@H](C)C(=O)N[C@@H](Cc1ccccc1)C(=O)N[C@@H](CCC(N)=O)C(=O)N[C@H](C(=O)N[C@@H](CO)C(=O)N[C@@H](CO)C(=O)N[C@@H](CC(C)C)C(=O)O)C(C)C` [Ac469] (H-RPRPVDHRAGSLRWAIAFQVSSL-OH; N-terminus and C-terminus assumed), in assay [2], the “MIC” value came out at 50 µM (≈ 131 µg/mL), the “bactericidal or bacteriostatic against A. baumannii” value was “bacteriostatic” and the “MBC (μM)” value is listed as “bacteriostat”.

`CC(C)C[C@H](NC(=O)[C@H](CS)NC(=O)[C@@H](NC(=O)[C@@H](NC(=O)[C@H](Cc1ccccc1)NC(=O)[C@H](Cc1c[nH]c2ccccc12)NC(=O)[C@@H](NC(=O)[C@H](CC(C)C)NC(=O)[C@H](Cc1ccccc1)NC(=O)[C@H](CS)NC(=O)[C@@H](NC(=O)[C@H](CC(N)=O)NC(=O)[C@@H](N)Cc1c[nH]cn1)[C@@H](C)O)[C@@H](C)O)[C@@H](C)O)[C@@H](C)O)C(=O)O` [Ac472] (H-HNTCFLTWFTTCL-OH; N-terminus and C-terminus assumed): in assay [2], the “MIC” value was determined as 15 µM (≈ 23.8 µg/mL), the “MIC (μM) for non-amidated Peptide” value turned out to be 15 µM, the “bactericidal or bacteriostatic against A. baumannii” value is on record as “bacteriostatic” and the “MBC (μM)” value is on record as “bacteriostat”.

As to `CC(C)C[C@H](NC(=O)[C@H](Cc1ccccc1)NC(=O)[C@H](CCCNC(=N)N)NC(=O)[C@H](CCCNC(=N)N)NC(=O)[C@H](CCCNC(=N)N)NC(=O)[C@H](CO)NC(=O)[C@H](CS)NC(=O)[C@@H](N)Cc1c[nH]c2ccccc12)C(=O)N[C@@H](C)C(=O)N[C@@H](CCCNC(=N)N)C(=O)N[C@@H](CS)C(=O)N[C@@H](Cc1c[nH]c2ccccc12)C(=O)N[C@@H](CCCNC(=N)N)C(=O)O` [Ac496] (H-WCSRRRFLARCWR-OH; N-terminus and C-terminus assumed), in assay [2], the minimum bactericidal concentration (MBC) amounted to 40 µM (≈ 71.8 µg/mL) and the minimum inhibitory concentration (MIC) was determined as 40 µM (≈ 71.8 µg/mL).
